Literature values, collected in patent US20170333565A1, “TLR9 TARGETED CYTOTOXIC AGENTS” (H. LEE MOFFITT CANCER CENTER AND RESEARCH INSTITUTE, INC., priority 2014, published 2017).

System: myelodysplastic syndromes (MDS)
Details: cited from earlier work

Nc1cccc2c1CN(C1CCC(=O)NC1=O)C2=O (centres unmarked) [LEN, lenalidomide]
clinical response (majority of patients with a chromosome 5q deletion (del5q)): sustained red blood cell transfusion independence
median duration of response (patients with del5q MDS): 2.5 years
